Laboratory results taken from PMC13032676, “PGM1 deficiency is linked to sarcomeric and mitochondrial dysfunction in patient-derived iPSC-cardiomyocytes” (Journal of Translational Medicine, 2026).
“Also recorded” adds a separate entry of the source.

Columns and labels:
[1] = test system: PGM1-deficient fibroblasts; settings: ref [5], [61]; cited from earlier work
Description: First, we performed targeted tracer metabolomics studies of central carbon metabolism. Previously, decreased UDP-Hexose levels were linked to reduced glycosylation in PGM1-CDG, which improve in presence of galactose.

[2] = test system: PGM1-deficient iCMs; assay: Untargeted N-glycoproteomics; assay type: cell-based, human; settings: low galactose in culture medium (in-house estimate 0.5 mM), no galactose-free arm
Procedure: Untargeted proteomics and N-glycoproteomics were performed to assess the (glyco)protein expression changes between PGM1-deficient and CTR iCMs based on previously published protocols (see supplementary materials for details).
Proteomics and N-glycoproteomics data analysis was performed as described previously. The proteomics data were searched using Sequest search engine in Proteome Discoverer 3.0 against the human Uniprot protein database. The N-glycoproteomics data using the publicly available software pGlyco version 3 with an in-built N-glycan database for identifying glycans and human Uniprot protein database for identifying peptide sequence. Two missed cleavages were allowed for both proteomics and glycoproteomics analysis. Error tolerance for precursor and fragment ions were set to 10 ppm and 0.02 Da, respectively, for proteomics and 10 ppm and 20 ppm, respectively, for glycoproteomics. […] For proteomics, quantitation of peptides across PGM1-CDG and […] was done using TMT reporter ion intensities using “reporter ion quantifier” node. To quantify glycopeptides, reporter ion quantification was performed for glycoproteomics raw files in Proteome Discoverer and glycopeptide IDs obtained from pGlyco were matched with quantitation on a scan-to-scan basis (MS/MS). […]

[3] = test system: PGM1-CDG individuals; settings: [5], [10], [11], [13] (b5), ref [7], cited from earlier work
[4] = biological target: T1, human PGM1 (Homo sapiens, UniProt P36871); assay: Microscale-thermophoresis binding of ZM peptides to PGM1; settings: His6-PGM1 labeled with RED-tris-NTA, 50 nM labeled PGM1, peptide 375 mM to 11.4 nM (16-step series), 10 min in the dark, 22 °C, 40% excitation power, 40% MST power, MO.Affinity v.2.2.4
T1 construct: made in house
T1 sequence (P36871 1-562): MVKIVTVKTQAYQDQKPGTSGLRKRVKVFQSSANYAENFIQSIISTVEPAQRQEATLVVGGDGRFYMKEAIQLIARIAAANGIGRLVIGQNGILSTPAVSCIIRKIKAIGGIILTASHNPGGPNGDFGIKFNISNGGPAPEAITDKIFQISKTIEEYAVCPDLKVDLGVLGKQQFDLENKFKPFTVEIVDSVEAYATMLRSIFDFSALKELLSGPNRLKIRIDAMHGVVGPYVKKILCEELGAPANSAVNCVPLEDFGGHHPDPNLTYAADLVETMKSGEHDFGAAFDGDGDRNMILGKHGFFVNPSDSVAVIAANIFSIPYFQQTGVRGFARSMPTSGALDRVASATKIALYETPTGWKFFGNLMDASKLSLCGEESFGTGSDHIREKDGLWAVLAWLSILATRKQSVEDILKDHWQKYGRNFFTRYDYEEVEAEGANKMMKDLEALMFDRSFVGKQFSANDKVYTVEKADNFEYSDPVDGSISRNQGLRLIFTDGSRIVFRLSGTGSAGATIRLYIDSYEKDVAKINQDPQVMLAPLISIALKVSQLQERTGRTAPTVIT
Description: For microscale-thermophoresis studies, a peptide representing the conserved Zasp motif (ZM) of ZASP/Cypher (26-mer: […]) and a corresponding peptide with the T106I mutation (underscored in sequence) were synthesized by ABI Scientific. A vector for recombinant expression of human PGM1 has been previously described. PGM1 was expressed and purified as previously described.
For binding studies, PGM1 was labeled using a commercial kit (NanoTemper Technologies, Inc.) according to the manufacturer’s specifications. Briefly, PGM1 was incubated at room temperature for 30 min with RED-tris-NTA dye, which specifically labels His6 tags, resulting in 100 nM labeled protein. The wild-type and T106I ZM peptides were serially diluted into a series of 16 PCR strip tubes and mixed 1:1 with labeled PGM1. The final concentration series of each peptide was […] to 11.4 nM, with all tubes containing 50 nM labeled PGM1. Samples were incubated in the dark for 10 min prior to use. Standard capillaries (Nanotemper MO-K022) were used to draw up the liquid and placed onto the sample tray of the Monolith NT.115 instrument (NanoTemper). Measurements were performed at 22 °C with control software at 40% excitation power and 40% MST power. Kd values were calculated using the MO. Affinity software v.2.2.4 (NanoTemper Technologies).

| Molecule | effect on UDP-hexose levels (in words) [1] | effect on glycosylation (in words) [2] | effect on cardiac (and skeletal muscle) manifestations (in words) ([3]; galactose therapy in PGM1-CDG, ref [3], [7], [18]) | effect on glycosylation and systemic features (in words) ([3]; oral galactose supplementation in PGM1-CDG, ref [1], [3], [12]) | in vitro binding affinity to PGM1 (Kd, in words) [4] |
| --- | --- | --- | --- | --- | --- |
| O=C[C@H](O)[C@@H](O)[C@@H](O)[C@H](O)CO [galactose] | normalize UDP-hexose levels in PGM1-deficient fibroblasts | partially restores glycosylation in PGM1-deficient iCMs; also recorded: sufficient to partially restore glycosylation in PGM1-deficient iCMs | fails to ameliorate cardiac and skeletal muscle involvement; also recorded: cardiac involvement does not respond to galactose therapy; also recorded: cardiac manifestations remain largely refractory to treatment | improves systemic features; also recorded: effective correction of glycosylation defects and improvement of systemic clinical features | – |
| LDB3 T206I mutant: corresponding peptide with the T106I mutation; dilated cardiomyopathy-associated LDB3 T206I mutant peptide (SSQPRQYNNPIGLYSAEILREMAQMY) | – | – | – | – | substantially reduced binding affinity (high µM) |
| SSQPRQYNNPIGLYSAETLREMAQMY [wild-type ZM peptide, peptide representing the conserved Zasp motif (ZM) of ZASP/Cypher (26-mer)] | – | – | – | – | high-affinity binding (low µM) |
